These results are taken from patent publication US8518373B2, “Ionic and non-ionic radiographic contrast agents for use in combined X-ray and nuclear magnetic resonance diagnostics” (priority 2001, dated 2013).

Like-named read-outs stand apart in the source and are kept apart here.

The conditions of data set [1]: cited from earlier work.
For data set [2] the following is noted: cited from earlier work. This is another data set of the same source.
For data set [3] the following is noted: rabbit, in vivo, cited from earlier work.
A short description of data set [4]: residual water signal after irradiating the amido proton signal, effect of temperature, 200 mM Iopamidol. The note with it: pH 6.74, 2.1 T, irradiation at 9.4 ppm, attenuation 300 dB. How it is done:
A 200 mM Iopamidol solution at pH=6.74 was investigated at 2.1 T magnetic field intensity (JEOL EX-90 spectrometer). After irradiating the amido proton signal at 9.4 ppm, with attenuation of 300 dB, the area under the water signal was measured. Considering 100 the area of the water signal with irradiation at −9.4 ppm, a drastic reduction is observed following irradiation of the amido protons. The effect increases as temperature increase so that: […]

A short description of data set [5]: residual water signal after irradiating the amido protons, effect of radiofrequency field intensity, 200 mM Iopamidol. As to conditions: for % residual signal: 200 mM, pH 6.29, 2.1 T, 39° C., rf field at 9.4 ppm. How it is done:
A 200 Mm Iopamidol solution at pH=6.29 was investigated at 2.1 T magnetic field intensity and at a temperature of 39° C. (JEOL EX-90 spectrometer). Considering 100 the area of the water signal with irradiation at −9.4 ppm, its decrease (expressed as % residual signal) was evaluated in the presence of a rf field tuned at 9.4 ppm (signal of the amido protons).

The conditions of data set [6]: dog, in vivo; cited from earlier work.
Data set [7] in a line: Z-spectra and Saturation transfer (ST) profiles of aqueous solutions in MT imaging. As to conditions: 7 T, pH 7.4, 312 K, 30 mM (Gd-DTPA 1 mM). How it is done:
The Magnetization Transfer or, more precisely, the amount of saturation transfer (ST) registered in a MT based MRI procedure following irradiation of the mobile proton(s), is conveniently quantified as ST % according to the following equation (2) ST %=100×(1−Ms/M0) (2)
In a first series, tests were conducted at physiological pH and temperature. A second series of tests were conducted at acidic pH.
In the first series of tests, Z-spectra and corresponding Saturation transfer (ST) profiles were measured at 7 T, pH 7.4 and 312 K, for aqueous solutions of iopamidol (30 mM), L-amino acids alanine, glutamine and lysine (each 30 mM), Gd-DTPA (1 mM) and Iopamidol (30 mM).

For `O=C1NCCN1` [2-Imidazolidinone], the LD50 intraperitoneal mouse in data set [1] (intraperitoneal, mouse) is listed as 500 mg/kg.
As to `O=C1CC(=O)NC(=O)N1` [Barbituric Acid], in data set [2] (oral, male rats), the “LD50 orally in male rats” value was over 5000 mg/kg.
On to `N=C(N)N` [Guanidine], for which the “LD orally in rabbits” value in data set [3] (po) is reported as 500 mg/kg.
On to `C[C@H](O)C(=O)Nc1c(I)c(C(=O)NC(CO)CO)c(I)c(C(=O)NC(CO)CO)c1I` [Iopamidol], for which the “% residual signal” value in data set [4] (15° C.) worked out at 39%; in data set [4] (25° C.), 30%; in data set [4] (39° C.), 24%; in data set [5] (attenuation 300 dB), 15%; in data set [5] (attenuation 400 dB), 40%. Besides, in data set [5] (2.1 T magnetic field), the “reduction of the signal from water in MRI saturation transfer” value was found to be 80%. Also, the LD50 in mice in data set [1] (mouse, in vivo) is 44.5 g/kg. In data set [2] (rat, in vivo), the LD50 in rats is 28.2 g/kg. For the same compound, the LD50 in rabbits in data set [3] is listed as 19.6 g/kg. Moreover, in data set [6], the LD50 in dogs is 34.7 g/kg.
As to `N=C(N)NCCC[C@H](N)C(=O)O` [L-Arginine], the LD50 intravenous mouse in data set [1] (mouse, in vivo, iv) is on record as 2030 mg/kg.
As to `C[C@H](N)C(=O)O` [L-alanine], the “Saturation Transfer Value pH = 7.4” value was 0 in data set [7] and “failed to provide any detectable signals” in data set [7] (listed as alanine).
Take `NCCCC[C@H](N)C(=O)O` [L-lysine]: the figures for the “Saturation Transfer Value pH = 7.4” value in data set [7] and in data set [7] (listed as lysine) were 0 and “failed to provide any detectable signals”, respectively.
On to `CC(=O)Nc1c(I)c(C(=O)N[C@H]2C(O)O[C@H](CO)[C@@H](O)[C@@H]2O)c(I)c(N(C)C(C)=O)c1I` (stereo partly drawn) [Metrizamide], for which the “LD50 i.v. in mice” value in data set [1] (i.v., mice (Aspelin)) was 17.3 g/kg; in data set [1] (i.v., mice (Salvenson)), 18.6 g/kg; in data set [1] (i.v., mice (Sovak)) it was 11.5 g/kg; in data set [1] (i.v., mice (Torsten)), 15 g/kg.
Take `O=C(O)C1CCCCN1` (stereo not drawn) [Pipecolinic. Acid]: the LD50 intravenous mouse in data set [1] (intravenous, mouse) is recorded as 2200 mg/kg.
Take `CC(=O)Nc1c(I)c(NC(C)=O)c(I)c(C(=O)[O-])c1I.[Na+]` [Sodium diatrizoate]: in data set [2] (i.v., rats (Langecker)), the “LD50 i.v. in rats” value is on record as 14.7 g/kg.
Take `Cc1cn([C@H]2C[C@H](O)[C@@H](CO)O2)c(=O)[nH]c1=O` [Thymidine]: the LD50 intraperitoneal mouse in data set [1] (mouse, in vivo, ip) was 2512 mg/kg.
For the compound Iopromide, in data set [1] (mice, i.v.), the LD50 in mice was 16.5 g iodine/kg body weight. Besides, in data set [2] (rats, i.v.), the LD50 in rats is given as 11.4 g iodine/kg body weight.
